Molecular target: RAC-alpha serine/threonine-protein kinase (Homo sapiens, UniProt P31749)
Assay: Inhibition of PI3K-mediated Akt phosphorylation at Ser 473 in human U87MG cells after 2 hrs by alphascreen assay

Chain of RAC-alpha serine/threonine-protein kinase (P31749 whole entry): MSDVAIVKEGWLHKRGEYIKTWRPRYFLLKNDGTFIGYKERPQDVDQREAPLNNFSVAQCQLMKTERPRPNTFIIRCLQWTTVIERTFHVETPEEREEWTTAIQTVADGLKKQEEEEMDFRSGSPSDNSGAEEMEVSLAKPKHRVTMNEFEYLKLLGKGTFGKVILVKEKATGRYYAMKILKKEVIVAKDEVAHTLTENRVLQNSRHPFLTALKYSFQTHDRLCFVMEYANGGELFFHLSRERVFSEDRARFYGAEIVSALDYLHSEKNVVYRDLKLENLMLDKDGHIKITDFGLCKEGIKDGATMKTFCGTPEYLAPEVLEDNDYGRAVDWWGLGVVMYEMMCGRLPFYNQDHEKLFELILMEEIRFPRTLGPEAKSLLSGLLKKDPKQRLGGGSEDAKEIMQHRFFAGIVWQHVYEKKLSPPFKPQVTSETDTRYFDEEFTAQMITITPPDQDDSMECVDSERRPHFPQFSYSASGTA

| IC50 [nM] | Structure (SMILES) |
| --- | --- |
| 1100 | CC(=O)Nc1nc2ccc(-c3cnc(Cl)c(NS(=O)(=O)c4ccc(F)cc4)c3)cc2o1 |
| > 12000 | O=S(=O)(Nc1cc(-c2ccc3nc[nH]c3c2)cnc1Cl)c1ccc(F)cc1 |
| > 12000 | O=S(=O)(Nc1cc(-c2ccc3ncoc3c2)cnc1Cl)c1ccc(F)cc1 |
| > 12000 | Nc1nc2ccc(-c3cnc(Cl)c(NS(=O)(=O)c4ccc(F)cc4)c3)cc2[nH]1 |
| 101 | Nc1nc2ccc(-c3cnc(Cl)c(NS(=O)(=O)c4ccc(F)cc4)c3)cc2o1 |
| > 12000 | Nc1cn2cc(-c3cnc(Cl)c(NS(=O)(=O)c4ccc(F)cc4)c3)ccc2n1 |
| > 12000 | O=S(=O)(Nc1cc(-c2ccc3nncn3c2)cnc1Cl)c1ccc(F)cc1 |
| > 12000 | O=S(=O)(Nc1cc(-c2ccc3sncc3c2)cnc1Cl)c1ccc(F)cc1 |
| 118 | CC(=O)Nc1cn2cc(-c3cnc(Cl)c(NS(=O)(=O)c4ccc(F)cc4)c3)ccc2n1 |
| 335 | CC(=O)Nc1nc2ccc(-c3cnc(Cl)c(NS(=O)(=O)c4ccc(F)cc4)c3)cc2[nH]1 |
| 415 | Nc1cn2nc(-c3cnc(Cl)c(NS(=O)(=O)c4ccc(F)cc4)c3)ccc2n1 |
| 13 | CC(=O)Nc1cn2nc(-c3cnc(Cl)c(NS(=O)(=O)c4ccc(F)cc4)c3)ccc2n1 |
| 574 | O=S(=O)(Nc1cc(-c2ccc3nccn3c2)cnc1Cl)c1ccc(F)cc1 |

Reference: BindingDB's records for doi:10.1021/jm2004442 (Amgen, 2011)
